# Assays:
# Format in all cases: in vivo
# [1] = test system: ABUTILON THEOPHRASTI, MEDIC.; experiment: Postemergence herbicidal evaluation, ABUTH (Velvetleaf)
# Description: (§1) In the tests, seedling plants are grown in jiffy flats for about two weeks. The test compounds are dispersed in 50/50 acetone/water mixtures containing 0.5% TWEEN®20, a polyoxyethylene sorbitan monolaurate surfactant of Atlas Chemical Industries, […] to the plants through a spray nozzle operating at 40 psi for a predetermined time. After spraying, the plants are placed on greenhouse benches and are cared for in the usual manner, commensurate with conventional greenhouse practices. From four to five weeks after treatment, the seedling plants are examined and rated according to the rating system set forth below. Where more than one test is involved for a given compound, the data are averaged.
# (§2) Plant species employed in these evaluations are reported by header abbreviation, common name and scientific name.
# (§3) Results of herbicide evaluation are expressed on a rating scale (0-9). The scale is based upon a visual observation of plant stand, vigor, malformation, size, chlorosis and overall plant appearance as compared with a control.
# [2] = test system: AMBROSIA ARTEMISIIFOLIA, L.; experiment: Postemergence herbicidal evaluation, AMBEL (Ragweed, Common)
# Description: as §1, §2, §3
# [3] = test system: CASSIA OBTUSIFOLIA, L.; experiment: Postemergence herbicidal evaluation, CASOB (Sicklepod); set-up: key to CASOB rating / Herbicidal effect rating, CASOB / CASOB: 0-9 visual rating scale vs untreated control
# Description: (§4) In the tests, seedling plants are grown in jiffy flats for about two weeks. The test compounds are dispersed in 50/50 acetone/water mixtures containing 0.5% TWEEN®20, a polyoxyethylene sorbitan monolaurate surfactant of Atlas Chemical Industries, in sufficient quantities to provide the equivalent of about 0.125 kg to 0.500 kg per hectare of active compound when applied to the plants through a spray nozzle operating at 40 psi for a predetermined time. After spraying, the plants are placed on greenhouse benches and are cared for in the usual manner, commensurate with conventional greenhouse practices. From four to five weeks after treatment, the seedling plants are examined and rated according to the rating system set forth below. Where more than one test is involved for a given compound, the data are averaged.
# as §2, §3
# [4] = test system: CHENOPODIUM ALBUM, L.; experiment: Postemergence herbicidal evaluation, CHEAL (Lambsquarters, Common)
# Description: as §1, §2, §3
# [5] = test system: IPOMOEA SPP.; experiment: Postemergence herbicidal evaluation, IPOSS (Morningglory spp.)
# Description: as §1, §2, §3
# [6] = test system: GALIUM APARINE; experiment: Postemergence herbicidal evaluation, GALAP (Galium); set-up: key to GALAP rating / Herbicidal effect rating, GALAP / GALAP: 0-9 visual rating scale vs untreated control
# Description: as §4, §2, §3
# [7] = test system: ECHINOCHLOA CRUS-GALLI, (L) BEAU; experiment: Postemergence herbicidal evaluation, ECHCG (Barnyardgrass); set-up: key to ECHCG rating / Herbicidal effect rating, ECHCG / ECHCG: 0-9 visual rating scale vs untreated control
# Description: as §4, §2, §3
# [8] = test system: SETARIA VIRIDIS, (L) BEAU; experiment: Postemergence herbicidal evaluation, SETVI (Foxtail, Green); set-up: key to SETVI rating / Herbicidal effect rating, SETVI / SETVI: 0-9 visual rating scale vs untreated control
# Description: as §4, §2, §3
# [9] = test system: GLYCINE MAX(L) MERR. CV. WILLIAMS; experiment: Postemergence herbicidal evaluation, GLXMAW (Soybean, Williams); set-up: key to GLXMAW rating / Herbicidal effect rating, GLXMAW / GLXMAW: 0-9 visual rating scale vs untreated control
# Description: as §4, §2, §3
# [10] = test system: ORYZA SATIVA, L. TEBONNET; experiment: Postemergence herbicidal evaluation, ORYSAT (Rice, Tebonnet); set-up: key: 0-9 visual rating scale vs untreated control
# Description: as §4, §2, §3
# [11] = test system: TRITICUM AESTIVUM, CV. APOLLO; experiment: Postemergence herbicidal evaluation, TRZAWO (Wheat, Winter, CV. APOLLO)
# Description: In the tests, seedling plants are grown in jiffy flats for about two weeks. The test compounds are dispersed in 50/50 acetone/water mixtures containing 0.5% TWEEN®20, a polyoxyethylene sorbitan monolaurate surfactant of Atlas Chemical Industries, […] through a spray nozzle operating at 40 psi for a predetermined time. After spraying, the plants are placed on greenhouse benches and are cared for in the usual manner, commensurate with conventional greenhouse practices. From four to five weeks after treatment, the seedling plants are examined and rated according to the rating system set forth below. Where more than one test is involved for a given compound, the data are averaged.
# as §2, §3
# [12] = test system: ZEA MAYS L.; experiment: Postemergence herbicidal evaluation, ZEAMX (Corn, Field)
# Description: as §1, §2, §3
# [13] = test system: CHENOPODIUM ALBUM, L.; experiment: Preemergence herbicidal evaluation, CHEAL (Lambsquarters, Common);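 further: higher means more injury with 8 approaching complete kill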
# Source text: as §3
# The preemergence herbicidal activity of the test compounds of the present invention is exemplified by the following tests in which the seeds of a variety of monocotyledonous and dicotyledonous plants are separately mixed with potting soil and planted on top of approximately one inch of soil in separate pint cups. […] The treated cups are then placed on greenhouse benches, watered and cared for in accordance with conventional greenhouse procedures. From four to five weeks after treatment, the tests are terminated and each cup is examined and rated according to the rating system provided in Example 40.
# The compounds evaluated are reported by compound number given in Example 40.
# [14] = test system: ORYZA SATIVA, L. TEBONNET; experiment: Rice tolerance to post-transplant applications under flooded paddy conditions, ORYSAT (Rice, Tebonnet); details: post-transplanted rice
# Description: as §3
# The tolerance of transplanted rice to post-transplanted herbicide applications is determined as follows: two ten-day-old rice seedlings (CV. Tebonnet) are transplanted into a silt loam soil in 32 oz. plastic containers with a diameter of 10.5 cm and no drainage holes. After transplanting the containers are flooded and the water level is maintained at 1.5 to 3 cm above the soil surface. […] The treated containers are placed on greenhouse benches, watered such that the water level is maintained as stated above, and cared for according to normal greenhouse procedures. Three to four weeks after treatment the test is terminated and each container is examined and herbicidal effect rated according to the rating system provided in Example 40. The compounds evaluated are reported by compound number given in Example 40.
# Plant species employed in this example are reported by header abbreviation, common name and scientific name.
smiles,measurement,setting,value
"Cn1c(=O)[nH]c(=O)n(-c2cc(Oc3ccc(C(F)(F)F)cc3Cl)ccc2[N+](=O)[O-])c1=O [B, reference compound]","Herbicidal effect rating, ABUTH",[1]; 0.031 kg/ha,4.5
same,"Herbicidal effect rating, ABUTH",[1]; 0.063 kg/ha,7.0
same,"Herbicidal effect rating, ABUTH",[1]; 0.125 kg/ha,7.0
same,"Herbicidal effect rating, ABUTH",[1]; 0.250 kg/ha,9.0
same,"Herbicidal effect rating, AMBEL",[2]; 0.031 kg/ha,3.0
same,"Herbicidal effect rating, AMBEL",[2]; 0.063 kg/ha,4.5
same,"Herbicidal effect rating, AMBEL",[2]; 0.125 kg/ha,8.0
same,"Herbicidal effect rating, AMBEL",[2]; 0.250 kg/ha,7.0
same,"Herbicidal effect rating, CASOB",[3]; 0.031 kg/ha,3.5
same,"Herbicidal effect rating, CASOB",[3]; 0.063 kg/ha,4.0
same,"Herbicidal effect rating, CASOB",[3]; 0.125 kg/ha,8.0
same,"Herbicidal effect rating, CASOB",[3]; 0.250 kg/ha,5.5
same,"Herbicidal effect rating, CHEAL",[4]; 0.031 kg/ha,2.0
same,"Herbicidal effect rating, CHEAL",[4]; 0.063 kg/ha,2.5
same,"Herbicidal effect rating, CHEAL",[4]; 0.125 kg/ha,7.0
same,"Herbicidal effect rating, CHEAL",[4]; 0.250 kg/ha,4.5
same,"Herbicidal effect rating, IPOSS",[5]; 0.031 kg/ha,8.0
same,"Herbicidal effect rating, IPOSS",[5]; 0.063 kg/ha,9.0
same,"Herbicidal effect rating, IPOSS",[5]; 0.125 kg/ha,8.0
same,"Herbicidal effect rating, IPOSS",[5]; 0.250 kg/ha,9.0
same,"Herbicidal effect rating, GALAP",[6]; 0.031 kg/ha,2.0
same,"Herbicidal effect rating, GALAP",[6]; 0.063 kg/ha,2.5
same,"Herbicidal effect rating, GALAP",[6]; 0.125 kg/ha,7.0
same,"Herbicidal effect rating, GALAP",[6]; 0.250 kg/ha,4.5
same,"Herbicidal effect rating, ECHCG",[7]; 0.031 kg/ha,1.0
same,"Herbicidal effect rating, ECHCG",[7]; 0.063 kg/ha,2.0
same,"Herbicidal effect rating, ECHCG",[7]; 0.125 kg/ha,3.0
same,"Herbicidal effect rating, ECHCG",[7]; 0.250 kg/ha,3.5
same,"Herbicidal effect rating, SETVI",[8]; 0.031 kg/ha,0.5
same,"Herbicidal effect rating, SETVI",[8]; 0.063 kg/ha,1.0
same,"Herbicidal effect rating, SETVI",[8]; 0.125 kg/ha,0.0
same,"Herbicidal effect rating, SETVI",[8]; 0.250 kg/ha,2.0
same,"Herbicidal effect rating, GLXMAW",[9]; 0.031 kg/ha,3.3
same,"Herbicidal effect rating, GLXMAW",[9]; 0.063 kg/ha,4.0
same,"Herbicidal effect rating, GLXMAW",[9]; 0.125 kg/ha,4.0
same,"Herbicidal effect rating, GLXMAW",[9]; 0.250 kg/ha,4.3
same,"Herbicidal effect rating, ORYSAT",[10]; 0.031 kg/ha,4.0
same,"Herbicidal effect rating, ORYSAT",[10]; 0.063 kg/ha,4.5
same,"Herbicidal effect rating, ORYSAT",[10]; 0.125 kg/ha,5.5
same,"Herbicidal effect rating, ORYSAT",[10]; 0.250 kg/ha,5.0
same,"Herbicidal effect rating, TRZAWO",[11]; 0.031 kg/ha,3.0
same,"Herbicidal effect rating, TRZAWO",[11]; 0.063 kg/ha,3.0
same,"Herbicidal effect rating, TRZAWO",[11]; 0.125 kg/ha,4.0
same,"Herbicidal effect rating, TRZAWO",[11]; 0.250 kg/ha,4.3
same,"Herbicidal effect rating, ZEAMX",[12]; 0.031 kg/ha,3.3
same,"Herbicidal effect rating, ZEAMX",[12]; 0.063 kg/ha,3.3
same,"Herbicidal effect rating, ZEAMX",[12]; 0.125 kg/ha,4.5
same,"Herbicidal effect rating, ZEAMX",[12]; 0.250 kg/ha,4.3
same,CHEAL,[13]; Rate 0.031 kg/ha,4.5
same,CHEAL,[13]; Rate 0.063 kg/ha,4.5
same,CHEAL,[13]; Rate 0.125 kg/ha,4.5
same,CHEAL,[13]; Rate 0.250 kg/ha,4.5
same,ORYSAT,[14]; Rate 0.031 kg/ha,2.0
same,ORYSAT,[14]; Rate 0.063 kg/ha,3.0
same,ORYSAT,[14]; Rate 0.125 kg/ha,2.5
same,ORYSAT,[14]; Rate 0.250 kg/ha,4.5
